Measured values as given in patent US20030134899A1, “Pharmaceutical combination of bicalutamide and tamoxifen for providing an anti-androgenic effect and an anti-oestrogenic effect” (priority 2002, published 2003).

Tests used:
testosterone, LH = settings: cited from earlier work
free testosterone = experiment: Human clinical trial: free testosterone concentrations in healthy male volunteers; format: in vivo
Source text: Key Inclusion Criteria: Male, aged 65 years or above showing no clinically significant abnormalities in routine haematological and biochemical tests and having endocrinology and prostate specific antigen (PSA) results within normal limits. Key Exclusion Criteria: Previous inclusion in a clinical trial using CASODEXTM; concurrent treatment with any drugs with the exception of paracetomol; history or presence of any testicular abnormality; history or presence of gastrointestinal, hepatic or renal disease, or other condition known to interfere with the absorption, distribution, metabolism or excretion of drugs; a clinically significant illness within 2 weeks of trial commencement; definite or suspected personal or family history of significant adverse drug reactions or any hypersensitivity to CASODEXTM or […]; treatment within the previous 3 months with any drugs known to have a well-defined potential for hepatotoxicity or hepatic interaction. Dosage: The CASODEXTM was administered daily at a dose of 150 mg and the […] was administered daily at a dose of 20 mg. All treatments were in tablet form and taken once daily. Daily treatment with CASODEXTM plus […] was for 6 weeks, this period being selected as the minimum time to attain steady-state plasma concentrations for the drugs. Another set of volunteers were administered CASODEXTM alone at a daily dose of 150 mg for 4 weeks. All treatments were in tablet form and taken once daily. Key Assessment: Free testosterone concentrations were measured during the course of the trial.

testosterone = settings: cited from earlier work

Row | Structure (SMILES) | Effect on mean serum testosterone, oestradiol, LH levels, LH pulse frequency and amplitude (testosterone, LH; 13 normal men, tamoxifen for 6 weeks (Spijkstra et al 1988)) | Effect on serum testosterone levels (testosterone, LH; tamoxifen administration to men (Lewis-Jones et al 1987)) | Effect on testosterone and LH (testosterone, LH; tamoxifen intake in adult men (Comhaire et al 1995)) | Effect on basal LH, FSH and testosterone levels (testosterone, LH; three months' treatment, normogonadotrophic oligozoospermic men (van Bergeijk et al 1986)) | Free testosterone, ratio to Day 1 (free testosterone; Day 29, CASODEX alone 150 mg daily for 4 weeks) | Free testosterone concentration, gmean (free testosterone; Day 29, CASODEX alone 150 mg daily for 4 weeks, n=7, pre-dose Day 1 baseline gmean 0.048) [nmol/L] | Increase in mean free testosterone concentration (free testosterone; by the end of the treatment period (4 weeks), CASODEX alone 150 mg daily) [%] | Increase in mean free testosterone concentration (testosterone; after 24 weeks of daily 150 mg CASODEX alone, prostate cancer (Verhelst et al 1994)) [%] | Change of basal level of total testosterone (testosterone; single agent therapy in humans (Blackledge et al 1996))
1 | CC/C(=C(\c1ccccc1)c1ccc(OCCN(C)C)cc1)c1ccccc1 [tamoxifen, (Z)-2-[p-(1,2-diphenylbut-1-enyl)phenoxy]ethyldimethylamine] | An increase | marked elevation | increase testosterone and LH | stimulated basal LH, FSH and testosterone levels | – | – | – | – | –
2 | CC(O)(CS(=O)(=O)c1ccc(F)cc1)C(=O)Nc1ccc(C#N)c(C(F)(F)F)c1 (stereo not drawn) [CASODEX™, 4′-cyano-α′,α′,α′-trifluoro-3-(4-fluorophenylsulphonyl)-2-hydroxy-2-methylpropiono-m-toluidide] | – | – | – | – | 1.58 | 0.076 | 58 | 57 | approximate doubling
